This passage reports IC50 results from patent US8937048B2, “Anti-angiogenic compounds” (Covx Technologies Ireland, Limited, priority 2008, dated 2015).

Each structure is given as a SMILES string. Where a SMILES comes first, the peptide text is derived from it. Bridges are numbered along the chain shown (N, C = ends).

For the test, the target named is T1, recombinant human VEGF165 (Homo sapiens, UniProt P15692).
T1 sequence (P15692 27-191 isoform P15692-4): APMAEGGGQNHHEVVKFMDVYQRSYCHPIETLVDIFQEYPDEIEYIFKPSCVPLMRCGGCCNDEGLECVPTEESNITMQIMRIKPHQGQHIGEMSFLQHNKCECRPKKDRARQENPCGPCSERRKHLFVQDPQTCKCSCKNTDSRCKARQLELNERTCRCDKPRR
In words: VEGF peptide binding assay (competition ELISA, VEGF165 binding to coated VEGFR2/Fc). How it is done:
High-binding half-well 96-well plates (Costar #3690) were coated with recombinant human VEGFR2/Fc (50 ng/well) in 50 μl PBS, and incubated at 4° C. overnight. After washing the plates three times with 1× washing buffer (KPL Cat#50-65-00) and blocking with Superblock (Scytek #AAA500) at room temperature (RT) for 1 hour, VEGF-peptides of the invention were serially diluted (concentrations: 0.128-10,000 nM) in the presence of 25 ng/ml of recombinant human VEGF165 in […] Superblock, and were then added to the 96-well plates and incubated at RT for 1 hour. Peptides of the invention tested in this fashion were all capped at the amino terminus with a C(O)CH3 group and at the carboxyl terminus with a NH2 group. The plates were then washed three times with washing buffer, and a diluted (1:500) biotinylated anti-human VEGF antibody (R&D systems, Cat# BAF293) was added and incubated at RT for 2 hours. After washing the plates, streptavidin HRP conjugate (1:200 in Superblock) (R&D systems, Cat# DY998) was added to detect the bound anti-VEGF antibody, followed by addition of tetramethylbenzidine (TMB) substrate (Pierce, Cat#34021) for color development. The reaction was stopped with 2 M H2SO4. OD450 was measured using SpectraMax (Molecular Device) with a correction wavelength of 540 nm. The data were analyzed using Prism software. OD450 values were plotted as a function of the concentrations of the VEGF peptides. IC50 values, indicative of the potency of the VEGF peptides to inhibit VEGF-VEGFR2 interaction, were obtained using a sigmoid dose-response curve fit in Prism.
With `CC[C@H](C)[C@@H]1NC(=O)[C@H](CC(=O)O)NC(=O)[C@@H](NC(=O)[C@H](CC(N)=O)NC(=O)[C@@H]2CCCN2C(=O)[C@H](CCC(=O)O)NC(=O)[C@@H](NC(C)=O)C(C)C)CSSC[C@@H](C(=O)N[C@@H](Cc2ccccc2)C(=O)N[C@@H](CCC(=O)O)C(=O)N[C@@H](CCCNC(=N)N)C(=O)N[C@@H](CC(C)C)C(N)=O)NC(=O)[C@H](CCC(=O)O)NC(=O)[C@H](Cc2c[nH]c3ccccc23)NC(=O)[C@H](CCC(=O)O)NC(=O)[C@H](Cc2c[nH]c3ccccc23)NC(=O)[C@H](CCSC)NC(=O)[C@H](C(C)C)NC(=O)[C@H](Cc2c[nH]cn2)NC1=O` [Compound 34, V-E-P-N-C-D-I-H-V-M-W-E-W-E-C-F-E-R-L] (Ac-VEPNCDIHVMWEWECFERL-NH2; disulfide 5-15 (inferred)), the IC50 (in general, the concentration that inhibits the measured activity by half) came out at 188 nM.
The figure for `CC[C@H](C)[C@@H]1NC(=O)[C@H](CC(=O)O)NC(=O)[C@@H](NC(=O)[C@H](CC(N)=O)NC(=O)[C@@H]2CCCN2C(=O)[C@H](CCC(=O)O)NC(=O)[C@@H](NC(C)=O)C(C)C)CSSC[C@@H](C(=O)N[C@@H](Cc2ccccc2)C(=O)N[C@@H](CCC(=O)O)C(=O)N[C@@H](CCCNC(=N)N)C(=O)N[C@@H](CC(C)C)C(=O)N[C@@H](Cc2ccc(O)cc2)C(=O)NCC(=O)NCC(=O)N[C@@H](Cc2c[nH]c3ccccc23)C(N)=O)NC(=O)[C@H](CCC(=O)O)NC(=O)[C@H](Cc2c[nH]c3ccccc23)NC(=O)[C@H](C(C)C)NC(=O)[C@H](Cc2c[nH]c3ccccc23)NC(=O)[C@H](CCSC)NC(=O)[C@H](C(C)C)NC(=O)[C@H](Cc2c[nH]cn2)NC1=O` [Compound 35, VEPNCDIHVMWVWECFERLYGGW] (Ac-VEPNCDIHVMWVWECFERLYGGW-NH2; disulfide 5-15 (inferred)) is 325 nM; for `CC[C@H](C)[C@@H]1NC(=O)[C@H](CC(=O)O)NC(=O)[C@@H](NC(=O)[C@H](CC(N)=O)NC(=O)[C@@H]2CCCN2C(=O)[C@H](CCC(=O)O)NC(=O)[C@@H](NC(C)=O)C(C)C)CSSC[C@@H](C(=O)N[C@@H](Cc2ccccc2)C(=O)N[C@@H](CCC(=O)O)C(=O)N[C@@H](CCCNC(=N)N)C(=O)N[C@@H](CC(C)C)C(=O)N[C@@H](Cc2ccccc2)C(=O)N[C@@H](CCCNC(=N)N)C(=O)N[C@@H](CCC(=O)O)C(=O)N[C@@H](C)C(N)=O)NC(=O)[C@H](C(C)C)NC(=O)[C@H](Cc2c[nH]c3ccccc23)NC(=O)[C@H](C(C)C)NC(=O)[C@H](Cc2c[nH]c3ccccc23)NC(=O)[C@H](CCSC)NC(=O)[C@H](C(C)C)NC(=O)[C@H](Cc2c[nH]cn2)NC1=O` [Compound 36, VEPNCDIHVMWVWVCFERLFREA] (Ac-VEPNCDIHVMWVWVCFERLFREA-NH2; disulfide 5-15 (inferred)) it is 172 nM; for `CC[C@H](C)[C@@H]1NC(=O)[C@H](CC(=O)O)NC(=O)[C@@H](NC(=O)[C@H](CC(N)=O)NC(=O)[C@@H]2CCCN2C(=O)[C@H](CCC(=O)O)NC(=O)[C@@H](NC(C)=O)C(C)C)CSSC[C@@H](C(=O)N[C@@H](Cc2ccccc2)C(=O)N[C@@H](CCC(=O)O)C(=O)N[C@@H](CCCNC(=N)N)C(=O)N[C@@H](CC(C)C)C(=O)N[C@@H](Cc2ccccc2)C(=O)N[C@@H](CCCCN)C(=O)N[C@@H](CCC(=O)O)C(=O)N[C@@H](C)C(N)=O)NC(=O)[C@H](C(C)C)NC(=O)[C@H](Cc2c[nH]c3ccccc23)NC(=O)[C@H](C(C)C)NC(=O)[C@H](Cc2c[nH]c3ccccc23)NC(=O)[C@H](CCSC)NC(=O)[C@H](C(C)C)NC(=O)[C@H](Cc2c[nH]cn2)NC1=O` [Compound 37, VEPNCDIHVMWVWVCFERLFKEA] (Ac-VEPNCDIHVMWVWVCFERLFKEA-NH2; disulfide 5-15 (inferred)) it is 59 nM.
With `CC[C@H](C)[C@@H]1NC(=O)[C@H](CC(=O)O)NC(=O)[C@@H](NC(=O)[C@H](CC(N)=O)NC(=O)[C@@H]2CCCN2C(=O)[C@H](CCC(=O)O)NC(=O)[C@@H](NC(C)=O)C(C)C)CSSC[C@@H](C(=O)N[C@@H](Cc2ccccc2)C(=O)N[C@@H](CCC(=O)O)C(=O)N[C@@H](CCCNC(=N)N)C(=O)N[C@@H](CC(C)C)C(=O)N[C@@H](CCSC)C(=O)N[C@@H](CCCCN)C(N)=O)NC(=O)[C@H](C(C)C)NC(=O)[C@H](Cc2c[nH]c3ccccc23)NC(=O)[C@H](C(C)C)NC(=O)[C@H](Cc2c[nH]c3ccccc23)NC(=O)[C@H](CCSC)NC(=O)[C@H](C(C)C)NC(=O)[C@H](Cc2c[nH]cn2)NC1=O` [Compound 38, VEPNCDIHVMWVWVCFERLMK] (Ac-VEPNCDIHVMWVWVCFERLMK-NH2; disulfide 5-15 (inferred)) the figure was 92.6 nM; with `CC[C@H](C)[C@@H]1NC(=O)[C@H](CC(=O)O)NC(=O)[C@@H](NC(=O)[C@H](CC(N)=O)NC(=O)[C@@H]2CCCN2C(=O)[C@H](CCC(=O)O)NC(=O)[C@@H](NC(C)=O)C(C)C)CSSC[C@@H](C(=O)N[C@@H](Cc2ccccc2)C(=O)N[C@@H](CCC(=O)O)C(=O)N[C@@H](CCCNC(=N)N)C(=O)N[C@@H](CC(C)C)C(=O)N[C@@H](Cc2ccc(O)cc2)C(=O)N[C@@H](CCCNC(=N)N)C(=O)N[C@@H](CCC(=O)O)C(=O)N[C@@H](CC(C)C)C(N)=O)NC(=O)[C@H](CCC(=O)O)NC(=O)[C@H](Cc2c[nH]c3ccccc23)NC(=O)[C@H](C(C)C)NC(=O)[C@H](Cc2c[nH]c3ccccc23)NC(=O)[C@H](CCSC)NC(=O)[C@H](C(C)C)NC(=O)[C@H](Cc2c[nH]cn2)NC1=O` [Compound 39, VEPNCDIHVMWVWECFERLYREL] (Ac-VEPNCDIHVMWVWECFERLYREL-NH2; disulfide 5-15 (inferred)), 70 nM.
For `CC[C@H](C)[C@H](NC(=O)CNC(=O)[C@H](Cc1ccc(O)cc1)NC(=O)[C@H](CC(C)C)NC(=O)[C@H](CCCNC(=N)N)NC(=O)[C@H](CCC(=O)O)NC(=O)[C@H](Cc1ccccc1)NC(=O)[C@@H]1CSSC[C@H](NC(=O)[C@H](CC(N)=O)NC(=O)[C@@H]2CCCN2C(=O)[C@H](CCC(=O)O)NC(=O)[C@@H](NC(C)=O)C(C)C)C(=O)N[C@@H](CC(=O)O)C(=O)N[C@@H]([C@@H](C)CC)C(=O)N[C@@H](Cc2c[nH]cn2)C(=O)N[C@@H](C(C)C)C(=O)N[C@@H](CCSC)C(=O)N[C@@H](Cc2c[nH]c3ccccc23)C(=O)N[C@@H](C(C)C)C(=O)N[C@@H](Cc2c[nH]c3ccccc23)C(=O)N[C@@H](CCC(=O)O)C(=O)N1)C(=O)N[C@@H](Cc1ccccc1)C(N)=O` [Compound 40, VEPNCDIHVMWVWECFERLYGIF] (Ac-VEPNCDIHVMWVWECFERLYGIF-NH2; disulfide 5-15 (inferred)), the IC50 was 78.3 nM.
With `CC[C@H](C)[C@@H]1NC(=O)[C@H](CC(=O)O)NC(=O)[C@@H](NC(=O)[C@H](CC(N)=O)NC(=O)[C@@H]2CCCN2C(=O)[C@H](CCC(=O)O)NC(=O)[C@@H](NC(C)=O)C(C)C)CSSC[C@@H](C(=O)N[C@@H](Cc2ccccc2)C(=O)N[C@@H](CCC(=O)O)C(=O)N[C@@H](CCCNC(=N)N)C(=O)N[C@@H](CC(C)C)C(=O)N[C@@H](Cc2ccc(O)cc2)C(N)=O)NC(=O)[C@H](CCC(=O)O)NC(=O)[C@H](Cc2c[nH]c3ccccc23)NC(=O)[C@H](C(C)C)NC(=O)[C@H](Cc2c[nH]c3ccccc23)NC(=O)[C@H](CCSC)NC(=O)[C@H](C(C)C)NC(=O)[C@H](Cc2c[nH]cn2)NC1=O` [Compound 41, VEPNCDIHVMWVWECFERLY] (Ac-VEPNCDIHVMWVWECFERLY-NH2; disulfide 5-15 (inferred)) the figure was 69.9 nM.
